Data reported in patent US6069132A, “Phosphazole compounds” (priority 1997, dated 2000).
In brackets after ≈: the same amount, converted by molar mass. Entries after “also recorded” stand apart in the source; their conditions may differ. Read-outs that look alike come from different tables or passages of the source.

Columns and labels:
MRC-5 cells = assay: Cytotoxicity on growing MRC-5 cells (MTS); type: cell-based, human
[1] = test system: adenosine deaminase (ADA); assay: Enzymatic hydrolysis by adenosine deaminase; type: in vitro ADME, calf
Experimental: Adenosine deaminase (ADA, adenosine aminohydrolase, EC 3.5.4.4, SIGMA) from calf intestinal mucosa was prepared to give a stock of 1 mg/mL (250-280 units/mL) in pH 7.4, 0.01 M phosphate buffer. The relative rates of hydrolysis of selected compounds by ADA and characterization of the products was carried as follows. […] Fifty-microliter aliquots were taken at time intervals and hydrolysis was quenched by mixing with 0.45 mL of distilled water and then the diluted sample was heated at 95° C. for 6 min to ensure enxyme deactivation. The decrease in substrate concentration and the formation of the products was followed over time by UV-spectroscopic analysis. Adenosine was used as a control in this experiment and one unit is defined as the amount of ADA that hydrolyzes 1.0 μmol of adenosine/min at 25° C.

TNFα = assay: Inhibition of TNFα production in LPS-stimulated THP-1 cells (ELISA); type: cell-based, human; conditions: for inhibition at 10 µg/mL / inhibition at 100 µg/mL / IC50: Homo sapiens; for inhibition at 10 µg/mL: 10 μg/mL; for inhibition at 10 µg/mL / inhibition at 100 µg/mL: THP-1, 6 h post-stimulation (FIG. 2), read-out: percent inhibition of TNFα production; for inhibition at 100 µg/mL: 100 μg/mL; for IC50: Table 2, LPS-stimulated THP-1, 6 h post-stimulation
Experimental: (§1) Cell line. THP-1 cells (human monocyte) were maintained in RPMI 1640 medium containing 25 mM Hepes buffer, 2 mM L-glutamine, 50 units of penicillin per mL, 50 μg of streptomycin sulfate per mL, and 10% heat-inactivated fetal bovine serum (FBS) in a humidified incubator containing 5% CO2. The cells were split 1:4 weekly as recommended by the American Type Culture Collection (ATCC).
(§2) TNFα assay. Varying concentrations of the test compound or control compound were added to THP-1 cells plated at a density of 1×10^6cells/mL in 600 μL of 10% RPMI in a 48 well plate. After one hour the cells were stimulated with 0.5 μg of lipopolysaccharide (LPS; Sigma, lot number 43H40491) per mL. Six hours post-stimulation supernatants were collected and assayed for TNFα or IL-1β production using a commercially available cytokine detection ELISA (Enzyme Linked Immunosorbent Assay) kit according to the suppliers instructions. A suitable assay kit may be obtained from Biosource, or R and D systems. A novel xanthine analog, HWA-3138, having the structure (as shown below) was used as the control compound (30) in this study to monitor the response of the THP-l cells. Xanthine analogs are known inhibitors of TNFα but not IL-1β. In the following experiments compound HWA-3138 was used as a positive control. [drawing 58]
Time of Addition. Varying concentrations of test or control compounds were added to THP-1 cells (1×10^6 cells/mL) at different time points post-stimulation using 0.5 μg of LPS (Sigma, lot number 43H40491) per mL in 300 μL of 10% RPMI in a 48 well plate. Six hours post-stimulationsupernatants were collected and assayed for TNFα or IL-1β production using a Biosource cytokine detection ELISA (Enzyme Linked Immunosorbent Assay) kit according to the supplier's instructions.
The membrane bound TNFα was separated from the free TNFα in the culture medium at 6 hours post-LPS stimulation as follows: The corresponding cells were centrifuged at 3500 rpm (~1,000×g) for 6 min. The supernatants were removed and the cell pellets were then resuspended in 200 μL of 0.25 mM Tris-HCl (pH 7.4). The cell associated TNFα was prepared by freezing the cell suspension in dry ice/ethanol and thawing at 37° C. three times with Vortexing in-between freeze-thaw cycles. Each cycle was 4-5 min apart.
To determine the long-term effects of phosphazole compound T70241 on TNFα production after a single treatment, THP-1 cells were pre-incubated with T70241, washed and resuspended in drug free medium. The xanthine analog HWA-3138 was used as a control.

IL-1β = assay: Inhibition of IL-1β production in LPS-stimulated THP-1 cells (ELISA); type: cell-based, human; conditions: for IC50: Homo sapiens
Experimental: as §1
as §2, with “58] […]” for “58]”
THP-1 cells were cultured and IL-1β inhibition assays were conducted as described for TNFα in Example 46, except a commercially available IL-1β assay kit, obtained from R and D Systems, Minneapolis, Minn., was used instead of the TNFα kit.
With reference now to FIG. 8, for each concentration of T70241 tested, the membrane bound IL-1β was separated from the IL-1β found free in the culture medium at 6 hours post-LPS stimulation as described in Example 46 for TNFα, and the percent inhibition of each fraction was graphed.

PBMCs = assay: Viability of PBMCs exposed to test compound; type: cell-based, human; conditions: 48 hours of exposure
HSV-1 = HSV-1 CPE assay in Vero cells; type: cell-based; conditions: Human alphaherpesvirus 1, Vero; Table 4
[2] = lowest concentration tested, 6 h post-LPS (FIG. 4)
[3] = Table 2, LPS-stimulated THP-1, 6 h post-stimulation, read-out: IC50 IL-1β in THP-1 cells

| Compound | toxic effect on growing MRC-5 cells (MRC-5 cells; FIG. 9A, four day period) | TC50 Growing MRC-5 (MRC-5 cells; Table 4, 50% inhibition of logphase growing cells, 5760 min) [µg/mL] | ADA substrate [1] | hydrolysis by ADA: UV spectra ([1]; up to 5 hours in presence of ADA) | levels of cell associated and free TNFα (TNFα; 6 hours post-LPS (FIG. 4)) | inhibition at 10 µg/mL (TNFα) [%] | inhibition at 100 µg/mL (TNFα) [%] | IC50 (TNFα) [µg/mL] | TNFα level on late addition (TNFα; compound added 5 hours post-LPS, read at 6 h (FIG. 3)) | inhibition of TNFα production compared to control HWA-3138 (TNFα; concentrations as little as 10 μg/mL (FIG. 2)) | reduction of extracellular TNFα (TNFα; [2]) | reduction of membrane-bound (intracellular) TNFα (TNFα; [2]) [%] | long-term inhibition of TNFα production after a single treatment (TNFα; pre-incubated, washed, drug free medium (FIG. 5)) | inhibition of IL-1β production (IL-1β; 50 to 100 μg/mL, THP-1 (FIG. 6)) | cell-associated and free IL-1β (IL-1β; 6 hours post-LPS (FIG. 8)) | IC50 (IL-1β; [3]) [µg/mL] | IC50 (IL-1β; from FIG. 6, LPS-stimulated THP-1, read-out: IC50, IL-1β production) [µg/mL] | PBMC viability / toxicity (PBMCs) | IC50 (HSV-1) [µg/mL] | inhibition of TNFα production by T70254 (TNFα; 6 hours, LPS (FIG. 2)) |
| --- | --- | --- | --- | --- | --- | --- | --- | --- | --- | --- | --- | --- | --- | --- | --- | --- | --- | --- | --- | --- |
| Nc1ncnc2pc[nH]c12 (stereo not shown) [T70241, 7-amino-1H-1,3-azaphospholo[4,5-d]pyrimidine] | slight toxic effect on growing MRC-5 cells | > 50 | not a substrate for ADA | remained unchanged | able to reduce the levels of both cell associated and free TNFα | ~25 | ~90 | 23.9 (≈ 157 µM) | significantly reduce the level of TNFα in the culture medium; also recorded: sharply inhibit the amount of cytokine in the culture | inhibits TNFα production in these cells better than the control xanthine compound | about 50% | ~30 | in a dose dependent fashion for 72 hours after the drug removal | able to inhibit IL-1β production | reduce both the cell-associated (intracelluar) and the free (extracellular) IL-1β | 16.1 (≈ 106 µM) | 38.8 (≈ 255 µM) | cell viability was not affected; also recorded: minimal | > 50 |  |
| CCCCCn1cpc2ncnc(N)c21 (stereo not shown) [T70254, 7-Amino-1-(n-pentyl)-1,3-azaphospholo[4,5-d]pyrimidine] |  |  |  |  |  | ~30 | ~55 | 19.4 (≈ 87.3 µM) |  |  |  |  |  |  |  | 152 (≈ 686 µM) |  |  | > 50 | significantly inhibits TNFα production in THP-1 cells |
